Measurements: patent US6379692B1, “Pharmaceutical composition comprising a suspension for the active ingredient” (Chauvin Pharmaceuticals Limited, priority 1997, dated 2002)

Assay: particle size by Coulter counter (100 μm tube)
Format: physicochemical
Details: without the use of a viscosity-enhancing agent
Source text: (iii) bringing the salt solution, the aqueous suspension or dispersion and the acid into admixture whereby there is formed a precipitate of microparticles of the active ingredient wherein 90% of the microparticles are of a diameter less than about 10 μm (number) when measured by a Coulter counter (100 μm tube).
Step (iii) may be undertaken by first bringing the salt solution into admixture with the aqueous suspension or dispersion followed by addition of the acid. However, preferably, the acid is added to the aqueous suspension/dispersion prior to addition thereto of the salt solution. Preferably, more base is then added to the suspension to neutralize the hydrophilic polymer(s). […]
However, in contrast to when pre-micronized active ingredient is used, the process of the present invention whereby such fine particles are produced in situ by precipitation results in a better distribution of particle size, with the D90 at room temperature being of the order of 5-10 μm (number), preferably 7-9 μm (number) or 10-16 μm (volume), whereas for pre-micronized drug the D90 is of the order of 5-10 μm (number) or 21-24 μm (volume). […] The term “D90” as used herein with respect to particle size distribution means that 90% of the particles have a diameter, when measured by a Coulter counter (100 μm tube), of less than the quoted figure. […]

Question: Which “length of needle-shaped crystals precipitated” value does the source give for `Nc1nc2c(ncn2COCCO)c(=O)[nH]1` [aciclovir, 2-amino-1,9-dihydro-9-[(2-hydroxyethoxy)methyl]6H-purin-6-one] here?
Answer: Its value is “greater than 30 μm”.
